Test [1] addresses T1, GLS1 (purified recombinant human GAC) (Homo sapiens, UniProt O94925).
T1 sequence (O94925 55-598 isoform O94925-3 limits assumed): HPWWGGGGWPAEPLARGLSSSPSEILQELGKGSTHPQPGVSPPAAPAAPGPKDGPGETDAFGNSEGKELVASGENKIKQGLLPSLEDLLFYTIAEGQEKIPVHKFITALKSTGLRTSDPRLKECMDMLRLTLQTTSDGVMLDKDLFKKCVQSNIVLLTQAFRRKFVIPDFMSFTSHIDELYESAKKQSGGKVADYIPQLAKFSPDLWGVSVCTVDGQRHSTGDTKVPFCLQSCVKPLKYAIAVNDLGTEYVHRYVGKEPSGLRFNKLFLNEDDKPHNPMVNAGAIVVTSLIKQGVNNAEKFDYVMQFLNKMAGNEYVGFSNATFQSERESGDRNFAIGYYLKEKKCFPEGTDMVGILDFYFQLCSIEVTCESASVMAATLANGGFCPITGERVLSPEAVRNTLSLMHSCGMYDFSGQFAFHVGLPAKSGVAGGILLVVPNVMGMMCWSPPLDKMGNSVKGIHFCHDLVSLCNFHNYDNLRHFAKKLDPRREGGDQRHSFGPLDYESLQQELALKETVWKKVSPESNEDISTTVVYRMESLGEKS
In words: GLS1 enzymatic activity assay (dual-coupled, Amplex UltraRed/resorufin). Type of test: biochemical. As for the experimental part:
GLS1 Enzymatic Activity Assay
The inhibition of purified recombinant human GAC by varying concentrations of inhibitors is assessed via a dual-coupled enzymatic assay. The glutamate produced by the glutaminase reaction is used by glutamate oxidase to produce α-ketoglutarate, ammonia, and hydrogen peroxide, with this hydrogen peroxide subsequently being used by horseradish peroxidase to produce resorufin in the presence of Amplex UltraRed. The assay buffer consisted of 50 mM Hepes (pH 7.4), 0.25 mM EDTA and 0.1 mM Triton X-100. GAC was incubated with potassium phosphate (10 minutes at room temperature) prior to incubation with inhibitor (10 minutes at room temperature). The final reaction conditions were as follows: 2 nM GAC, 50 mM potassium phosphate, 100 mU/mL glutamate oxidase (Sigma), 1 mM glutamine (Sigma), 100 mU/mL horseradish peroxidase (Sigma), 75 μM Amplex UltraRed (Life Technologies), and 1% (v/v) DMSO. The production of resorufin was monitored on a Perkin Elmer Envision plate reader (excitation 530 nm, emission 590 nm) either in a kinetics or endpoint mode (at 20 minutes). IC50 values were calculated using a four-parameter logistic curve fit.

In the next test the test system is A549 cells. Description: A549 proliferation (viability) assay, Cell Titer Fluor, 72 hours. Type of test: cell-based. The conditions noted are these: Homo sapiens. As to the method: A549 cells were routinely maintained in RPMI 1640 media (Gibco catalog number 11875-093) supplemented with 10% dialyzed fetal bovine serum using a humidified incubator (37° C., 5% CO2 and ambient O2). In preparation for the viability assay, cells were inoculated into 384-well black CulturPlates (Perkin Elmer) at a density of 1000 cells/well in a volume of 40 uL. Following a 24-hour incubation at 37° C., 5% CO2 and ambient O2, cells were treated with compound (10 uL) in a final DMSO concentration of 0.5% (v/v). The microplates were then incubated for 72 hours (37° C., 5% CO2 and ambient O2). Cell Titer Fluor (Promega) was subsequently added (10 uL of 6× reagent) and mixed for 15 minutes at room temperature. The plates were then incubated for 30 minutes (37° C., 5% CO2 and ambient O2) and fluorescence was subsequently read on the Perkin Elmer Envision plate reader. EC50 values were calculated using a four-parameter logistic curve fit.

What is called IC50 is the concentration needed to halve the response being measured. As usually defined, the EC50 is the midpoint of the concentration-response curve. A high value points to a need for much substance.

For `O=C(CC1CCCCC1)Nc1ccn(CCC(F)Cn2cc(C(=O)NCc3ccccn3)nn2)c(=O)c1F` (stereo not shown) [Example 267, 1-{4-[4-(2-cyclohexylacetamido)-3-fluoro-2-oxo-1,2-dihydropyridin-1-yl]-2-fluorobutyl}-N-(pyridin-2-ylmethyl)-1H-1,2,3-triazole-4-carboxamide], the IC50 in test [1] was below 100 nM. Besides, the EC50 with A549 cells was below 100 nM. For the compound `O=C(NCc1ccc(C(F)(F)F)nc1)c1cn(CC(F)CCn2ccc(NC(=O)C3CCCC3)c(F)c2=O)nn1` (stereo not shown) [Example 370, 1-[4-(4-cyclopentaneamido-3-fluoro-2-oxo-1,2-dihydropyridin-1-yl)-2-fluorobutyl]-N-{[6-(trifluoromethyl)pyridin-3-yl]methyl}-1H-1,2,3-triazole-4-carboxamide], the IC50 in test [1] lay within 100 to 500 nM. The EC50 in the test with A549 cells lay within 100 to 500 nM.

Consider `O=C(CC1CCCCC1)Nc1ccn(CCC(F)Cn2cc(C(=O)NCc3ccc(C(F)(F)F)nc3)nn2)c(=O)c1F` (stereo not shown) [Example 260, 1-{4-[4-(2-cyclohexylacetamido)-3-fluoro-2-oxo-1,2-dihydropyridin-1-yl]-2-fluorobutyl}-N-{[6-(trifluoromethyl)pyridin-3-yl]methyl}-1H-1,2,3-triazole-4-carboxamide], for which the IC50 in test [1] was below 100 nM. The compound further came in with an EC50 in the test with A549 cells below 100 nM. Turning to `O=C(CC1CCCCC1)Nc1ccn(CCCCn2cc(C(=O)NCc3cccc(C(F)(F)F)c3)nn2)c(=O)c1` [Example 141, 1-{4-[4-(2-cyclohexylacetamido)-2-oxo-1,2-dihydropyridin-1-yl]butyl}-N-{[3-(trifluoromethyl)phenyl]methyl}-1H-1,2,3-triazole-4-carboxamide], in test [1], the IC50 was below 100 nM. Moreover, the EC50 in the test with A549 cells was below 100 nM. As to `O=C(Cc1ccccc1)Nc1ccc(CCCCn2ccc(NC(=O)OC3CCCCC3)nc2=O)nn1` [Example 95, cyclohexyl N-(2-oxo-1-{4-[6-(2-phenylacetamido)pyridazin-3-yl]butyl}-1,2-dihydropyrimidin-4-yl)carbamate], the IC50 in test [1] is below 100 nM. In addition, the EC50 with A549 cells is below 100 nM. For `CC(C)OC(=O)Nc1ccn(CCCCc2ccc(NC(=O)Cc3cccc(OC(F)(F)F)c3)nn2)c(=O)n1` [Example 102, propan-2-yl N-{2-oxo-1-[4-(6-{2-[3-(trifluoromethoxy)phenyl]acetamido}pyridazin-3-yl)butyl]-1,2-dihydropyrimidin-4-yl}carbamate], the IC50 in test [1] is below 100 nM. Further, the EC50 in the test on A549 cells lay in the range of 100 to 500 nM.

On to `O=C(Cc1cccnc1)Nc1ccn(CCC(F)Cn2cc(C(=O)NCc3cccc(OC(F)(F)F)c3)nn2)c(=O)c1` (stereo not shown) [Example 246, 1-(2-fluoro-4-{2-oxo-4-[2-(pyridin-3-yl)acetamido]-1,2-dihydropyridin-1-yl}butyl)-N-{[3-(trifluoromethoxy)phenyl]methyl}-1H-1,2,3-triazole-4-carboxamide], for which, in test [1], the IC50 is below 100 nM. The EC50 in the test with A549 cells was 500 to 5000 nM. Turning to `CC(C)(C)OC(=O)N1CCN(CC(=O)Nc2ccn(CCC(F)Cn3cc(C(=O)NCc4cccc(OC(F)(F)F)c4)nn3)c(=O)c2)CC1` (stereo not shown) [Example 271, tert-butyl 4-{[(1-{3-fluoro-4-[4-({[3-(trifluoromethoxy)phenyl]methyl}carbamoyl)-1H-1,2,3-triazol-1-yl]butyl}-2-oxo-1,2-dihydropyridin-4-yl)carbamoyl]methyl}piperazine-1-carboxylate], the IC50 in test [1] was below 100 nM. Moreover, the EC50 in the test on A549 cells is below 100 nM.

For the compound `CS(=O)(=O)c1cccc(CNC(=O)c2cn(CCCCn3ccc(NC(=O)Cc4cccc(OC(F)(F)F)c4)cc3=O)nn2)c1` [Example 53, N-[(3-methanesulfonylphenyl)methyl]-1-[4-(2-oxo-4-{2-[3-(trifluoromethoxy)phenyl]acetamido}-1,2-dihydropyridin-1-yl)butyl]-1H-1,2,3-triazole-4-carboxamide], in test [1], the IC50 is below 100 nM. The compound also showed an EC50 with A549 cells of 500 to 5000 nM.

Consider `Nc1nnc(CCCCn2ccc(NC(=O)Cc3ccccc3)cc2=O)s1` [Example 30, N-{1-[4-(5-amino-1,3,4-thiadiazol-2-yl)butyl]-2-oxo-1,2-dihydropyridin-4-yl}-2-phenylacetamide], for which, in test [1], the IC50 is 500 to 5000 nM.

The record behind these values is patent publication US20160002204A1 (Board of Regents, The University of Texas System, priority 2014, published 2016).
